Values after ≈ are worked out from the molar mass of the structure shown. Active and inactive are the calls of the source. The calls are words filed in the database; no cut-off is given here.
Tests used:
Cryptococcus neoformans [1] = experiment: Antimicrobial activity against Cryptococcus neoformans ATCC 90113 by Alamar blue method; format: functional, organism-based
Candida albicans = experiment: Antimicrobial activity against Candida albicans ATCC 90028 by Alamar blue method; format: functional, organism-based
Pichia kudriavzevii [2] = experiment: Antimicrobial activity against Candida krusei ATCC 6258 by Alamar blue method; format: functional, organism-based
Aspergillus fumigatus = experiment: Antimicrobial activity against Aspergillus fumigatus ATCC 204305 by Alamar blue method; format: functional, organism-based
in vitro = settings: monkey, Vero cells
Description: Selectivity index, ratio of TC50 for african green monkey Vero cells to IC50 for Aspergillus fumigatus ATCC 204305

Nakaseomyces glabratus = experiment: Antimicrobial activity against Candida glabrata by Alamar blue method; format: functional, organism-based
[3] = tested on: Mycobacterium intracellulare; experiment: Antimicrobial activity against Mycobacterium intracellulare ATCC 23068 by Alamar blue method; format: functional, organism-based
Saccharomyces cerevisiae [4] = experiment: Antimicrobial activity against Saccharomyces cerevisiae expressing ydj1 mutant gene assessed as increase in sensitivity at 20 umol/L by spectrophotometry relative to wild type; format: functional
Staphylococcus aureus [5] = experiment: Antimicrobial activity against Staphylococcus aureus ATCC 29213 by Alamar blue method; format: functional, organism-based; settings: Staphylococcus aureus, ATCC 29213
Saccharomyces cerevisiae [6] = experiment: Antimicrobial activity against wild type Saccharomyces cerevisiae assessed as increase in sensitivity measured as survival at 20 umol/L by spectrophotometry relative to control; format: functional
Pichia kudriavzevii [7] = experiment: Ratio of fluconazole MFC to compound MFC for Candida krusei ATCC 6258 by Alamar blue method; format: functional
Saccharomyces cerevisiae [8] = experiment: Antimicrobial activity against Saccharomyces cerevisiae expressing msh2 mutant gene assessed as increase in sensitivity at 20 umol/L by spectrophotometry relative to wild type; format: functional
[9] = Cytotoxicity against african green monkey Vero cells after 48 hrs by Neutral Red dye assay; format: cell-based; settings: chlorocebus sabaeus, read-out: TC50
[10] = Selectivity index, ratio of TC50 for african green monkey Vero cells to IC50 for Cryptococcus neoformans ATCC 90113; format: toxicity, cell-based; settings: read-out: Selectivity Index
Pichia kudriavzevii [11] = experiment: Ratio of amphotericin B IC50 to compound IC50 for Candida krusei ATCC 6258 by Alamar blue method; format: functional
Staphylococcus aureus [12] = experiment: Antimicrobial activity against methicillin-resistant Staphylococcus aureus ATCC 33591 by Alamar blue method; format: functional, organism-based
Saccharomyces cerevisiae [13] = experiment: Antimicrobial activity against Saccharomyces cerevisiae expressing rad52 mutant gene assessed as increase in sensitivity at 20 umol/L by spectrophotometry relative to wild type; format: functional
Saccharomyces cerevisiae [14] = experiment: Antimicrobial activity against Saccharomyces cerevisiae expressing snf2 mutant gene assessed as increase in sensitivity at 20 umol/L by spectrophotometry relative to wild type; format: functional
Cryptococcus neoformans [15] = experiment: Ratio of amphotericin B IC50 to compound IC50 for Cryptococcus neoformans ATCC 90113 by Alamar blue method; format: functional
Saccharomyces cerevisiae [16] = experiment: Antimicrobial activity against Saccharomyces cerevisiae expressing msh2 mutant gene assessed as increase in sensitivity measured as survival at 20 umol/L by spectrophotometry relative to wild type; format: functional
Saccharomyces cerevisiae [17] = experiment: Antimicrobial activity against Saccharomyces cerevisiae expressing ydj1 mutant gene assessed as sensitivity at 50 umol/L by spectrophotometry; format: functional, organism-based
Saccharomyces cerevisiae [18] = experiment: Antimicrobial activity against Saccharomyces cerevisiae expressing rad52 mutant gene assessed as sensitivity at 50 umol/L by spectrophotometry; format: functional, organism-based
Saccharomyces cerevisiae [19] = experiment: Antimicrobial activity against wild type Saccharomyces cerevisiae assessed as sensitivity at 50 umol/L by spectrophotometry; format: functional, organism-based
Saccharomyces cerevisiae [20] = experiment: Antimicrobial activity against Saccharomyces cerevisiae expressing msh2 mutant gene assessed as sensitivity at 20 umol/L by spectrophotometry; format: functional, organism-based
Saccharomyces cerevisiae [21] = experiment: Antimicrobial activity against Saccharomyces cerevisiae expressing ydj1 mutant gene assessed as sensitivity at 20 umol/L by spectrophotometry; format: functional, organism-based
Saccharomyces cerevisiae [22] = experiment: Antimicrobial activity against Saccharomyces cerevisiae expressing msh2 mutant gene assessed as sensitivity at 50 umol/L by spectrophotometry; format: functional, organism-based
[23] = Selectivity index, ratio of TC50 for african green monkey Vero cells to MIC for Aspergillus fumigatus ATCC 204305; format: toxicity, cell-based; settings: read-out: Selectivity Index
Saccharomyces cerevisiae [24] = experiment: Antimicrobial activity against Saccharomyces cerevisiae expressing snf2 mutant gene assessed as sensitivity at 50 umol/L by spectrophotometry; format: functional, organism-based

Structure (SMILES)	MFC (Cryptococcus neoformans [1]) [µg/mL]	MIC (Cryptococcus neoformans [1]) [µg/mL]	MFC (Candida albicans) [µg/mL]	MIC (Candida albicans) [µg/mL]	IC50 (Pichia kudriavzevii [2]) [µg/mL]	MFC (Pichia kudriavzevii [2]) [µg/mL]	MIC (Pichia kudriavzevii [2]) [µg/mL]	MFC (Aspergillus fumigatus) [µg/mL]	MIC (Aspergillus fumigatus) [µg/mL]	IC50 (Nakaseomyces glabratus) [µg/mL]	MFC (Nakaseomyces glabratus) [µg/mL]	MIC (Nakaseomyces glabratus) [µg/mL]	fold change (FC) (Saccharomyces cerevisiae [13])	fold change (FC) (Saccharomyces cerevisiae [14])	also measured
C[C@@H]1[C@H](O)[C@@H](C)/C=C/C=C/C=C/C=C/C=C/C=C/C=C/[C@H](O[C@@H]2O[C@H](C)[C@@H](O)[C@H](N)[C@@H]2O)C[C@@H]2O[C@](O)(C[C@@H](O)C[C@@H](O)[C@H](O)CC[C@@H](O)C[C@@H](O)CC(=O)O[C@H]1C)C[C@H](O)[C@H]2C(=O)O [AMPHOTERICIN B]	0.63 (≈ 0.682 µM)	0.63 (≈ 0.682 µM)	1.3 (≈ 1.41 µM)	0.62 (≈ 0.671 µM)	0.22 (≈ 0.238 µM)	1.3 (≈ 1.41 µM)	0.62 (≈ 0.671 µM)	5 (≈ 5.41 µM)	1.3 (≈ 1.41 µM)	0.22 (≈ 0.238 µM)	1.3 (≈ 1.41 µM)	0.63 (≈ 0.682 µM)	–	–	IC50 (Cryptococcus neoformans [1]): 0.2 µg/mL (≈ 0.216 µM); selectivity ratio (in vitro): 38
Clc1ccc(CSc2cc3ccccc3[n+](CCCCCC3CCCCC3)c2)cc1.[I-]	0.08	0.08	0.63	0.63	0.07	0.16	0.16	1.3	1.3	0.44	1.3	1.3	2.9	10	IC50 [3]: 1.6 µg/mL; MBC [3]: 2.5 µg/mL; MIC [3]: 2.5 µg/mL; fold change (FC) (Saccharomyces cerevisiae [4]): 7.5; IC50 (Candida albicans): 0.33 µg/mL; MBC (Staphylococcus aureus [5]): 0.31 µg/mL; MIC (Staphylococcus aureus [5]): 0.16 µg/mL; IC50 (Staphylococcus aureus [5]; read-out: IC50): 0.05 µg/mL; Activity (Saccharomyces cerevisiae [6]): 31%; Ratio IC50 (Pichia kudriavzevii [7]): 310; fold change (FC) (Saccharomyces cerevisiae [8]): 1.1; CC50 at 48 h [9]: 1.3 µg/mL; selectivity ratio [10]: 26; Ratio IC50 (Pichia kudriavzevii [11]): 3; IC50 (Aspergillus fumigatus): 0.69 µg/mL; IC50 (Staphylococcus aureus [12]): 0.06 µg/mL; MBC (Staphylococcus aureus [12]): 0.31 µg/mL; MIC (Staphylococcus aureus [12]): 0.16 µg/mL; Ratio IC50 (Cryptococcus neoformans [15]): 4
C[n+]1c2ccccc2cc2[n-]c3ccccc3c21 [CRYPTOLEPINE]	> 25	12.5 (≈ 53.8 µM)	–	–	–	–	–	–	–	–	–	–	3.5	1.7	Activity (Saccharomyces cerevisiae [16]): 29%; Activity (Saccharomyces cerevisiae [17]): Active; Activity (Saccharomyces cerevisiae [18]): Active; Activity (Saccharomyces cerevisiae [19]): Active; Activity (Saccharomyces cerevisiae [20]): inactive; Activity (Saccharomyces cerevisiae [21]): inactive; Activity (Saccharomyces cerevisiae [22]): Active; selectivity ratio [23]: < 0.13; Activity (Saccharomyces cerevisiae [24]): Active

From ChEMBL document CHEMBL3085759, “Structure-activity relationship (SAR) and preliminary mode of action studies of 3-substituted benzylthioquinolinium iodide as anti-opportunistic infection agents” (Eur J Med Chem, 2013)
